Test results taken from ChEMBL document CHEMBL4837239, “Identification of Thieno[3,2-d]pyrimidine Derivatives as Dual Inhibitors of Focal Adhesion Kinase and FMS-like Tyrosine Kinase 3” (J Med Chem, 2021).
Activity calls are given as the source filed them. The rule behind the calls is not given here.

What was measured:
CYP3A4 = CYP3A4 (Homo sapiens, UniProt P08684); assay: Inhibition of CYP3A4 (unknown origin) at 10 uM relative to control; format: ADME
BaF3 [1] = assay: Antiproliferative activity against mouse Ba/F3 cells harbouring FLT3 ITD mutant assessed as growth inhibition measured after 72 hrs by CellTiter-Glo assay; format: functional
CYP1A2 = molecular target: T1, CYP1A2 (Homo sapiens, UniProt P05177); assay: Inhibition of CYP1A2 (unknown origin) at 10 uM relative to control; format: ADME
T1 sequence (P05177 whole entry): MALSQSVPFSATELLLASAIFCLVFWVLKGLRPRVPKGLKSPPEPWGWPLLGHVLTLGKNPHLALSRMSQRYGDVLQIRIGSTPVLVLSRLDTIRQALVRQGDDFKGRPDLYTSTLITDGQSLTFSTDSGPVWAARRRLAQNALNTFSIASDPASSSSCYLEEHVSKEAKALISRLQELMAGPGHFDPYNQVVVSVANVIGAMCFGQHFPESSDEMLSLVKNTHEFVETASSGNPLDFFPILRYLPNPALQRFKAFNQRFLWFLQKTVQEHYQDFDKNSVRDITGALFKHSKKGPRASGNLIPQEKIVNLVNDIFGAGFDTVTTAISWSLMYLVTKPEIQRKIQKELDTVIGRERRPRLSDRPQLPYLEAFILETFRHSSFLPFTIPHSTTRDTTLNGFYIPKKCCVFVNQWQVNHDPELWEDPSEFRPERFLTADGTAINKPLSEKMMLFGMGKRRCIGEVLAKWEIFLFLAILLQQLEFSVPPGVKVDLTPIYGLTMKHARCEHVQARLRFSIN

[2] = Metabolic stability in human liver microsomes assessed as compound remaining at 1 uM measured after 1 hr; format: ADME, Microsome; settings: read-out: Stabilty
BaF3 [3] = assay: Antiproliferative activity against mouse Ba/F3 cells assessed as growth inhibition measured after 72 hrs by CellTiter-Glo assay; format: functional
CYP2C9 = CYP2C9 (Homo sapiens, UniProt P11712); assay: Inhibition of CYP2C9 (unknown origin) at 10 uM relative to control; format: ADME
Chain of CYP2C9 (P11712 whole entry): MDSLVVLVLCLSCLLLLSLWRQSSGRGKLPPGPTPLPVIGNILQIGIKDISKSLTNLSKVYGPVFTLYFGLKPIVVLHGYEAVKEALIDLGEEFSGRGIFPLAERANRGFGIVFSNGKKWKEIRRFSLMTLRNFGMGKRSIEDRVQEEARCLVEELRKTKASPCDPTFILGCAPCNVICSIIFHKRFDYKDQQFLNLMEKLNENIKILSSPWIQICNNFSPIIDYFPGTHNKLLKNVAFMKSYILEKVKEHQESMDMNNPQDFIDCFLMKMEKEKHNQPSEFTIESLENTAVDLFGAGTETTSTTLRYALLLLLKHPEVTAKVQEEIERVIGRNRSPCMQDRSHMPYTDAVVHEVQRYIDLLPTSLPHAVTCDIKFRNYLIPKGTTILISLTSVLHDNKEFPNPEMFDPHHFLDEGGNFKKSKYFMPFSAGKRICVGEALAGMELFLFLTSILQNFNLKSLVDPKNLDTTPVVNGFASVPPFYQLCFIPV

Focal adhesion kinase 1 = Focal adhesion kinase 1 (Homo sapiens, UniProt Q05397); assay: Inhibition of recombinant FAK (unknown origin) by radiometric kinase assay
Chain of Focal adhesion kinase 1 (Q05397 whole entry): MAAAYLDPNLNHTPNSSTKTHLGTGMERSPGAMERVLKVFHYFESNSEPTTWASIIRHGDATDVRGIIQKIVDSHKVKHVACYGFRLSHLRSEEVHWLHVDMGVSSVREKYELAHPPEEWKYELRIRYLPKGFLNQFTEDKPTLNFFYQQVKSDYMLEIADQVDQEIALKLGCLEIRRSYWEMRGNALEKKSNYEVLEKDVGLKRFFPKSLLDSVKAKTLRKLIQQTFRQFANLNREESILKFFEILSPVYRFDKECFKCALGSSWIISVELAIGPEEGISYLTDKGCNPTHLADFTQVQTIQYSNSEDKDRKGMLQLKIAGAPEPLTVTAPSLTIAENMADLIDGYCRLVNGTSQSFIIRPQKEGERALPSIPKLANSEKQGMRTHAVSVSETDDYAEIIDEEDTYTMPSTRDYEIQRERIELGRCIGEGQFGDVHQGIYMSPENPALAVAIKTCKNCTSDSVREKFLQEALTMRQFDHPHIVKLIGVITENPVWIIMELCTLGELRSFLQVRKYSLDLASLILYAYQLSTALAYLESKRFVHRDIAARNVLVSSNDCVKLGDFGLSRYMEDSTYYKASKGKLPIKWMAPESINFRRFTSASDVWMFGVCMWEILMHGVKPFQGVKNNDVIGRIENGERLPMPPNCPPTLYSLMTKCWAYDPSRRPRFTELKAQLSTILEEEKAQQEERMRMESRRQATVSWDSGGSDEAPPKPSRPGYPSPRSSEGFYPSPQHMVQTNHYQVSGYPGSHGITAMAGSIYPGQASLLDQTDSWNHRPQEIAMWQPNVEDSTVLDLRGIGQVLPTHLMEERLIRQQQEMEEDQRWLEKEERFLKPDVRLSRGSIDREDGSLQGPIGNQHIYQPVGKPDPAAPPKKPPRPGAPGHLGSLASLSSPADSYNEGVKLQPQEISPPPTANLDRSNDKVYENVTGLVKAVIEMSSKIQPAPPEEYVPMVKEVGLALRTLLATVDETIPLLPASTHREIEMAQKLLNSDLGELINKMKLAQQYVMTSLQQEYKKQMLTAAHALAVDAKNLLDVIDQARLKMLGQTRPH

CYP2C19 = CYP2C19 (Homo sapiens, UniProt P33261); assay: Inhibition of CYP2C19 (unknown origin) at 10 uM relative to control; format: ADME
Chain of CYP2C19 (P33261 whole entry): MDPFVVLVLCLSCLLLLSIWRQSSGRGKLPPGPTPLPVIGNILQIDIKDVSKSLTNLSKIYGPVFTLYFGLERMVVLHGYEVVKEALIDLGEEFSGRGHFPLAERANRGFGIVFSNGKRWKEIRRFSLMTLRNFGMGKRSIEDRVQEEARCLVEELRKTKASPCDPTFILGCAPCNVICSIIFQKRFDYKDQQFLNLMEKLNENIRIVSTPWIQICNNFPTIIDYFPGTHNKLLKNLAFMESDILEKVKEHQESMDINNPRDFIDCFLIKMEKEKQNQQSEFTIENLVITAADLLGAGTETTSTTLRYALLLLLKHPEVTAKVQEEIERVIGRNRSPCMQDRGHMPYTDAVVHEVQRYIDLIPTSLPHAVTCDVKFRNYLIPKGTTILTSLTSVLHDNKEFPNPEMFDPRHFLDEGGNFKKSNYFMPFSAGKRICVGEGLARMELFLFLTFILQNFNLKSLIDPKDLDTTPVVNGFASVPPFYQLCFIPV

BaF3 [4] = assay: Antiproliferative activity against mouse Ba/F3 cells harbouring FLT3 ITD D835Y mutant assessed as growth inhibition measured after 72 hrs by CellTiter-Glo assay; format: functional
[5] = (§1) Antiproliferative activity against human A375P cells assessed as growth inhibition measured after 72 hrs by CellTiter-Glo assay; format: functional
CYP2D6 = CYP2D6 (Homo sapiens, UniProt P10635); assay: Inhibition of CYP2D6 (unknown origin) at 10 uM relative to control; format: ADME
Chain of CYP2D6 (P10635 whole entry): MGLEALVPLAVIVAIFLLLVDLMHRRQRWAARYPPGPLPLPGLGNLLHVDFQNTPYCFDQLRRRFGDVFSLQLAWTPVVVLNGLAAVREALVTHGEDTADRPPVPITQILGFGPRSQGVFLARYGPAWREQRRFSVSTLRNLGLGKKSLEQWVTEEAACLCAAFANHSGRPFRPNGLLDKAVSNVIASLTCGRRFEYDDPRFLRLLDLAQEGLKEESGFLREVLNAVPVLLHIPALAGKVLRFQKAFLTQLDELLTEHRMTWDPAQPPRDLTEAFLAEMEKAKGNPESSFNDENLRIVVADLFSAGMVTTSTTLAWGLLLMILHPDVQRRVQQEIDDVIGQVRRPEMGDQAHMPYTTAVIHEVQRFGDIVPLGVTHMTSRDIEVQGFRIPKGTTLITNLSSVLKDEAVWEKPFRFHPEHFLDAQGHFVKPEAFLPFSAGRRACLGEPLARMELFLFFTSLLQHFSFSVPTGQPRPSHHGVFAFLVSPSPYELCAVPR

MDA-MB-231 = assay: Antiproliferative activity against human MDA-MB-231 cells assessed as growth inhibition measured after 72 hrs by CellTiter-Glo assay; format: functional
BaF3 [6] = assay: Antiproliferative activity against mouse Ba/F3 cells harbouring FLT3 ITD F691I mutant assessed as growth inhibition measured after 72 hrs by CellTiter-Glo assay; format: functional
BaF3 [7] = assay: Antiproliferative activity against mouse Ba/F3 cells harbouring FLT3 D835Y mutant assessed as growth inhibition measured after 72 hrs by CellTiter-Glo assay; format: functional
[8] = Inhibition of FLT3 D835Y (unknown origin); parameters: species or system Homo sapiens
HCT-116 = assay: Antiproliferative activity against human HCT-116 cells assessed as growth inhibition measured after 72 hrs by CellTiter-Glo assay; format: functional
BaF3 [9] = assay: Antiproliferative activity against mouse Ba/F3 cells harbouring FLT3 ITD F691L mutant assessed as growth inhibition measured after 72 hrs by CellTiter-Glo assay; format: functional
[10] = Inhibition of FYK Y379 mutant phosphorylation in human MDA-MB-231 cells by in-cell western blot assay; format: cell-based
A375P = assay: as §1; format: functional

Chain of CYP3A4 (P08684 whole entry): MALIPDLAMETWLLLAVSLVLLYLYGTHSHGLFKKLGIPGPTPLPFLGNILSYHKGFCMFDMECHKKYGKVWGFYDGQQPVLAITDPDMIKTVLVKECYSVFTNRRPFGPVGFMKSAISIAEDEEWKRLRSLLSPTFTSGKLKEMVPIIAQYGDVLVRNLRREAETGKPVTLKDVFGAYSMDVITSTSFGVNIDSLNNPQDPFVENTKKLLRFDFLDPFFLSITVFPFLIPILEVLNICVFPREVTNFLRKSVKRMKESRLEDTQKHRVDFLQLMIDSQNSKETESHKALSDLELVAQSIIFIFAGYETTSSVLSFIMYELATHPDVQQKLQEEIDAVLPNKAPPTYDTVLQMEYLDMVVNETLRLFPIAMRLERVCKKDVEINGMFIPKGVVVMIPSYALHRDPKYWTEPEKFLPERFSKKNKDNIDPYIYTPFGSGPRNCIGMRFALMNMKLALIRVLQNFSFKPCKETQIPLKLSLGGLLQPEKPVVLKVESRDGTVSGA

SMILES	inhibition at 10 µM (CYP3A4)	GI50 (BaF3 [1]; Mus musculus, BaF3)	inhibition at 10 µM (CYP1A2)	remaining at 1 h, 1 µM [2]	GI50 (BaF3 [3]; Mus musculus, BaF3)	inhibition at 10 µM (CYP2C9)	IC50 (Focal adhesion kinase 1)	inhibition at 10 µM (CYP2C19)	GI50 (BaF3 [4]; Mus musculus, BaF3)	GI50 ([5]; Homo sapiens, A375P)	inhibition at 10 µM (CYP2D6)	GI50 (MDA-MB-231; Homo sapiens, MDA-MB-231)	GI50 (BaF3 [6]; Mus musculus, BaF3)	GI50 (BaF3 [7]; Mus musculus, BaF3)	IC50 [8]	GI50 (HCT-116; Homo sapiens, HCT-116)	GI50 (BaF3 [9]; Mus musculus, BaF3)	other results
CCN1CCN(c2ccc(Nc3ncc4scc(-c5cccc([N+](=O)[O-])c5)c4n3)cc2)CC1	55.1%	23.4 nM	44.8%	73.1%	511 nM	100%	21 nM	82.9%	20.5 nM	500 nM	100%	260 nM	234 nM	4 nM	< 0.5 nM	110 nM	136 nM	
CCN1CCN(c2ccc(Nc3ncc4scc(-c5cccc(N6CCCS6(=O)=O)c5)c4n3)cc2)CC1	59.6%	46.3 nM	67.9%	73.4%	371 nM	74.1%	33 nM	75.7%	23.2 nM	410 nM	91.3%	530 nM	568 nM	9.4 nM	< 0.5 nM	340 nM	223 nM	
CS(=O)(=O)Nc1cccc(-c2csc3cnc(Nc4ccc(N5CCNCC5)cc4)nc23)c1	57.3%	7.4 nM	67.5%	100%	550 nM	63.2%	12 nM	57.5%	11 nM	490 nM	84.7%	460 nM	183 nM	1.6 nM	< 0.5 nM	250 nM	103 nM	
CCN1CCN(c2ccc(Nc3ncc4scc(-c5ccccc5)c4n3)cc2)CC1	81%	10.8 nM	30.9%	92.6%	174 nM	92.1%	10 nM	96.5%	153 nM	400 nM	84.1%	630 nM	192 nM	2.2 nM	< 0.5 nM	1140 nM	67.5 nM	
CCN1CCN(c2ccc(Nc3ncc4scc(-c5ccc6cc[nH]c6c5)c4n3)cc2)CC1	76%	20.8 nM	67.3%	89.3%	647 nM	91.7%	54 nM	76.5%	32.3 nM	500 nM	89.4%	570 nM	142 nM	6.2 nM	< 0.5 nM	170 nM	57.7 nM	
CCN1CCN(c2ccc(Nc3ncc4scc(-c5cccc(OC)c5)c4n3)cc2)CC1	72.1%	1100 nM	35.1%	83.7%	405 nM	89.3%	12 nM	79.4%	90.7 nM	510 nM	86.4%	280 nM	390 nM	46.5 nM	< 0.5 nM	240 nM	222 nM	
CS(=O)(=O)Nc1cccc(-c2csc3cnc(Nc4ccc(N5CCC(O)CC5)cc4)nc23)c1	57.9%		34.9%	54.8%			16 nM	56.5%			61.5%				< 0.5 nM			GI50 (BaF3 [1]): 14.5 nM; GI50 (BaF3 [3]): 600 nM; GI50 (BaF3 [4]): 14 nM; GI50 [5]: 1930 nM; GI50 (MDA-MB-231): 440 nM; GI50 (BaF3 [6]): 587 nM; GI50 (BaF3 [7]): 23 nM; GI50 (HCT-116): 520 nM; GI50 (BaF3 [9]): 299 nM
CS(=O)(=O)Nc1cccc(-c2csc3cnc(Nc4ccc(N5CCOCC5)cc4)nc23)c1				79.5%			8 nM								< 0.5 nM			GI50 (BaF3 [1]): 9.5 nM; IC50 [10]: 260 nM; GI50 (BaF3 [3]): 510 nM; GI50 (BaF3 [4]): 10.3 nM; GI50 [5]: 1570 nM; GI50 (MDA-MB-231): 400 nM; GI50 (BaF3 [6]): 365 nM; GI50 (BaF3 [7]): 1.7 nM; GI50 (HCT-116): 410 nM; GI50 (BaF3 [9]): 104 nM
CCOC(=O)c1ccccc1-c1csc2cnc(Nc3ccc(N4CCN(CC)CC4)cc3)nc12							1650 nM					46200 nM				31200 nM		GI50 (A375P): inactive
CCN1CCN(c2ccc(Nc3ncc4scc(-c5ccc6ccccc6c5)c4n3)cc2)CC1							126 nM					1380 nM				2060 nM		GI50 (A375P): inactive
COc1cc(Nc2ncc3scc(-c4cccc(NS(C)(=O)=O)c4)c3n2)cc(OC)c1OC				39.7%			7 nM								< 0.5 nM			GI50 (BaF3 [1]): 3.1 nM; IC50 [10]: 260 nM; GI50 (BaF3 [3]): 586 nM; GI50 (BaF3 [4]): 1.3 nM; GI50 [5]: 200 nM; GI50 (MDA-MB-231): 410 nM; GI50 (BaF3 [6]): 325 nM; GI50 (BaF3 [7]): 1.3 nM; GI50 (HCT-116): 430 nM; GI50 (BaF3 [9]): 25.3 nM
CNC(=O)c1ccccc1Nc1nc(Nc2ccc(N3CCOCC3)cc2OC)ncc1Cl	71.2%		73.3%			27%		50.5%		1690 nM	83.2%	1490 nM				270 nM		
CS(=O)(=O)Nc1cccc(-c2csc3cnc(NCCO)nc23)c1												57200 nM				55800 nM		GI50 (A375P): inactive
